The values that follow come from patent US20120258956A1, “USE OF A SPIROLIDE, ANALOGUES AND DERIVATIVES FOR TREATING AND/OR PREVENTING PATHOLOGICAL CONDITIONS LINKED TO THE TAU AND BETA-AMYLOID PROTEINS” (priority 2009, published 2012).

The subject of data set [1] is tau phosphorylated on Thr212 and Ser214. Kind of data set: Western blot of phosphorylated tau (AT100 antibody) in 3xTg-AD cortical neuronal cultures. It counts as cell-based, mouse. Conditions: 3xTg cultures, FIG. 3B, p<0.005, n=3. From the text:
(§1) In order to carry out the experiments of the present invention, either an in vitro cortical neuronal model with simultaneous overexpression of tau and β-amyloid, obtained from a model of Alzheimer's disease in triple-transgenic (3×Tg-AD or 3×Tg) mice, obtainable via the detailed procedure in the international patent application WO2003/053136 and provided by the title holders of this application, or an in vitro cortical neuronal model obtained from non-transgenic (No-Tg) mice.
(§2) For the determination of the effect of the spirolide compound of the present invention on the expression of tau and beta amyloid, the Western blot techniques were used. […] For Western blot studies, protein expression was evaluated using 6E10 anti-β-amyloid primary antibodies at a dilution of 1:500, AT8 anti-Tau (tau phosphorylated on Ser202, dilution 1:1000) and AT100 anti-tau (tau phosphorylated on Thr 212 and Ser214, dilution 1:1000).
(§3) For Western blot assays, neuronal cultures treated with the spirolide of the present invention were washed with cold phosphate buffer and lysed in 50 mM Tris-HCl buffer (pH 7.4) containing 150 mM NaCl, 1 mM EDTA, 1% Triton X-100, 2 mM DTT, 2.5 mM PMSF, 40 mg/ml aprotinin, 4 mg/ml leupeptin, 5 mM NaF, 1 mM Na3VO4, 1 mg/ml pepstatin A and 1 mg/ml benzamidine. Total protein concentration was determined by Bradford's method using bovine albumin as standard. […]

The conditions of data set [2]: oral; cited from earlier work.
For data set [3], the system named is β-amyloid. The experiment in a line: Western blot of intracellular β-amyloid (6E10 antibody) in 3xTg-AD cortical neuronal cultures. It counts as cell-based, mouse.
From the text: as §1, §2, §3
Background: A western blot detects proteins with antibodies after separation by electrophoresis.

For data set [4] the following is noted: administered intraperitoneally, rat and mouse; cited from earlier work.
In data set [5] the test system is tau phosphorylated on Ser202. Kind of data set: Western blot of phosphorylated tau (AT8 antibody) in 3xTg-AD cortical neuronal cultures. It counts as cell-based, mouse. The following applies: for levels of tau phosphorylated on Serine 202: day 3 to day 10 in vitro, untreated 3xTg 129.1.
From the text: as §1
The administration of 50 nM spirolide is equivalent to approximately 37 μg spirolide per kg of body weight. Intraperitoneal administration of an amount higher than 37 μg per kg body weight to a mouse reduced the levels of these proteins but produced toxic effects in the animal (Santokh et al., 2003. NeuroToxicology, 24: 593-604), however, the oral toxicity of spirolides is 1 mg per kg body weight.
For the determination of the effect of the spirolide compound of the present invention on the expression of tau and beta amyloid, the Western blot techniques were used. The primary neuronal cultures were incubated with the spirolide compound of the present invention added to the culture medium for a specific time. For the concentration of 50 nM, the treatment times were between 7 and 10 days in vitro and for other concentrations (0.1 to 25 nM) between 3 and 10 days in vitro. The cells were then processed following the usual protocols for Western blot. For Western blot studies, protein expression was evaluated using 6E10 anti-β-amyloid primary antibodies at a dilution of 1:500, AT8 anti-Tau (tau phosphorylated on Ser202, dilution 1:1000) and AT100 anti-tau (tau phosphorylated on Thr 212 and Ser214, dilution 1:1000).
For Western blot assays, neuronal cultures treated with the spirolide of the present invention were washed with cold phosphate buffer and lysed in 50 mM Tris-HCl buffer (pH 7.4) containing 150 mM NaCl, 1 mM EDTA, 1% Triton X-100, 2 mM DTT, 2.5 mM PMSF, 40 mg/ml aprotinin, 4 mg/ml leupeptin, 5 mM NaF, 1 mM Na3VO4, 1 mg/ml pepstatin A and 1 mg/ml benzamidine. Total protein concentration was determined by Bradford's method using bovine albumin as standard. Aliquots of cellular lysates containing 20 μg total protein were loaded in loading buffer (50 mM Tris-HCl, 100 mM dithiothreitol, 2% SDS, 20% glycerol, 0.05% bromophenol blue, pH 6.8), the proteins were separated by electrophoresis and transferred to PVDF membranes. The membranes were incubated with the primary antibodies, washed and then incubated with a secondary antibody bound to HRP. Immunoreactivity was detected by chemiluminescence. The same membranes were reincubated with an anti-β-actin primary antibody to carry out data correction for the sample protein content.

Data set [6] has as its system total tau. Kind of data set: Western blot of total basal tau (Tau46 antibody) in control non-transgenic cortical neurones. The data set is classed as cell-based, mouse. Conditions: 100 nM. On the procedure: The effect of spirolide on basal phosphorylation of tau was determined by Western blot techniques. An in vitro cortical neuronal model obtained from non-transgenic mice was used. Neuronal culture and sample processing was carried out in the same way as described in the previous example. The data obtained were corrected for the β-actin content of the samples.

For data set [7], the system named is cortical neurones. Kind of data set: Alamar Blue cellular viability assay in primary cortical cultures. The data set is classed as cell-based, mouse. Conditions: 72 hours in culture.
From the text: as §1
Primary cortical cultures in the embodiment of the invention were obtained from 3×Tg-AD mouse embryos of 15-17 days gestation and the wild cultures were obtained from non 3×Tg control mouse embryos of the same strain. The effect of the compounds used in this invention on cellular viability was estimated by a fluorescence assay using the Alamar Blue viability indicator. To carry out the assay, primary cortical cultures seeded on 96-well plates were used. The neuronal cells were incubated in the culture medium with the spirolide of the present invention at different concentrations dissolved in dimethyl sulfoxide and the effect on neuronal viability was determined at different treatment times in vitro. The maximum concentration of 13-desmethyl spirolide evaluated was 100 nM and the concentration of Alamar blue was 10%. The volume of the reaction used was 200 μl. Fluorescence was measured at wavelengths of 530 nm (excitation) and 590 nm (emission).
Background: The colour change of resazurin is a common sign of viable cells or microbes.

Regarding 13-desmethyl spirolide, the “tau phosphorylation (AT100, Thr212 and Ser214; Western blot quantification)” value in data set [1] is “significant reduction”. The “toxicity when administered orally” value in data set [2] was “not toxic”. Further, the β-amyloid protein entry in data set [3] (0.5 nM) was “reducing β-amyloid protein”. For the same substance, in data set [3] (3xTg cultures, FIG. 1B, p<0.005 vs untreated transgenic cultures, n=3), the “overexpression of β-amyloid (Western blot quantification, 6E10)” value is given as “significant reduction”. In addition, in data set [4], the “concentration causing toxic effects” value was 37-40 μg/kg body weight. Moreover, the “hyperphosphorylation of the tau protein” value in data set [5] (0.017 μg per kg body weight (approx. 0.023 nM)) is given as “continued to be reduced”. Also, the “levels of tau phosphorylated on Serine 202” value in data set [5] (3xTg cultures, 0.1 nM) is listed as 129.8 ± 1.7 % control; in data set [5] (3xTg cultures, 0.5 nM), 61.7 ± 12.4 % control; in data set [5] (3xTg cultures, 10 nM), 70.3 ± 4.7 % control; in data set [5] (3xTg cultures, 25 nM), 89.1 ± 2.2 % control. For the same substance, the “tau phosphorylation (AT8, Ser202; Western blot quantification)” value in data set [5] (3xTg cultures, FIG. 2B, p<0.05, n=3) is listed as “significant reduction”. The entries for the “total basal tau levels in control neurones” value in data set [6] and in data set [6] (listed as spirolide) were 139.9 ± 27.3 % control and “did not affect”, respectively. Besides, the “Viability of cortical neurones” value was found to be 104.3 ± 1.2 % control in data set [7] (2.5 nM); 104 ± 1.3 % control in data set [7] (5 nM); 104.3 ± 1.4 % control in data set [7] (10 nM); 104.3 ± 0.7 % control in data set [7] (25 nM); 103.4 ± 0.5 % control in data set [7] (50 nM); 102.1 ± 1.5 % control in data set [7] (100 nM).
